In patent EP4663640A1 (Shanghai Institute of Materia Medica, Chinese Academy of …, priority 2023, dated 2024):

Experiments:
[1] = tested on: primary cultured mouse hepatic stellate cells (HSC); assay: Inhibition of TGF-β-induced hepatic stellate cell activation (α-SMA labeling); format: cell-based; conditions: 1 µM compound, TGF-β 10 ng/mL, 24 hours; TGF-β alone 11.76 ± 1.47%, unstimulated 0.3 ± 0.04%; Mean ± SEM
Method: After primary cultured mouse hepatic stellate cells (HSC) were plated on 96-well black-bottom permeable plates for 24 hours, they were pre-incubated with 1 µM compound E21 and solvent control 0.1% DMSO for 1 hour, and then TGF-β was added to a final concentration of 10 ng/mL, and continued to be cultured in a CO2 incubator for 24 hours. Then the culture medium was aspirated, the plates were washed with 37 °C PBS solution for 3 times, and 4% paraformaldehyde solution was added for 30 minutes for fixation. Then 0.15% Triton X-100 solution was added for permeabilization for 10 minutes; then 5% BSA solution was added for blocking at room temperature for 1 hour; then anti-α-SMA solution (1:300) prepared with 5% BSA solution was added and incubated at 4 °C overnight; the next day, Alexa-488 anti-rabbit fluorescent secondary antibody (1:1000) prepared with 5% BSA solution was added and incubated at room temperature for 1 hour in the dark. […] After the end, the cells were washed 3 times with PBS solution and fluorescence photography was performed. The FITC filter was used to shoot green fluorescence, and the DAPI filter was used to shoot blue fluorescence. ImageJ software was used to count the total number of cells in each field of view, and the number of α-SMA positive cells was manually counted. […]

[2] = tested on: mice; assay: Tail suspension test (antidepression); format: in vivo
Method: The drug to be tested was dissolved in DMSO: Tween 80: distilled water at a ratio of 2:2:96 (v/v/v), and then administered to mice by gavage at a volume of 10 mL/kg. […] The blank control group was only given 10 mL/kg of the above solvent.
The mouse tail suspension test (TST) is a widely used experimental method to evaluate the effectiveness of antidepressants and other psychotropic drugs. The principle of the test is to suspend a mouse by its tail and observe its behavior. The mouse will initially struggle to escape, but when it realizes that escape is impossible, it will eventually stop struggling and enter a state of immobility that indicates despair. This immobility behavior is used to measure depression-like states, and the severity of the condition is assessed by recording the duration of immobility.
The same mouse was subjected to the tail suspension test immediately after the marble burying test. A tail suspension test box was built using a black frosted acrylic board, 55 cm high, 15 cm long, and 11.5 cm wide. The three sides and top of the box were frosted blackboards, and one side was used for video recording. The mouse tail was wrapped with yellow tape 2 cm away from the tip of the tail, and the mouse was hung upside down in the middle of the top acrylic board. The tip of the mouse tail was about 3 cm away from the acrylic board, and the body was suspended and could not touch the surrounding board wall. The test time for each mouse lasted for 6 minutes, and the immobility time of the mouse during this time was counted. After the experiment, the mouse was returned to the cage, and the inside of the box and the table were wiped with alcohol to remove the smell of the previous mouse to prevent affecting the next mouse experiment. The criteria for immobility in the tail suspension test: stop struggling, no flexion or twisting of the body, no swinging of the hind limbs, and slight swinging of the forelimbs and head were also counted as immobility time.

[3] = Liver microsome stability test, human
[4] = Tissue distribution in rats; format: in vivo, SD rats; conditions: 2 hours after oral administration of 10 mg/kg, brain, heart, liver, spleen, lung, kidney, colon, muscle versus plasma (Figure 2)
Method: Intravenous (IV) administration: the drug to be tested was dissolved in DMSO/Solutol/normal saline at a ratio of 5:5:90 (v/v/v), with a concentration of 0.2 mg/mL, and the administration volume was 5 mL/kg. Oral (PO) administration: the drug to be tested was dissolved in DMSO/Tween 80/0.5% CMC-Na solution at a ratio of 2:2:96 (v/v/v), with a concentration of 1 mg/mL, and the administration volume was 10 mL/kg.
Male SD rats weighing 180-280g, 3 rats in each group, fasted for 12h before the experiment, had free access to water, and ate uniformly 4 h after administration. In the IV group, the rat tail vein was administered with a dose of 1mg/kg, and blood was collected at 0.083, 0.25, 0.5, 1.0, 2.0, 4.0, 6.0, 8.0, 12 and 24 h after administration. PO group, administered by gavage at a dose of 10 mg/kg, blood was collected at 0.25, 0.5, 1.0, 2.0, 4.0, 6.0, 8.0, 12 and 24 h after administration. At the above time points, 0.2 mL of blood was collected from the jugular vein and placed in an anticoagulant tube containing EDTA-K2. […] The drug concentration in the samples was quantified using LC-MS/MS method. Relevant pharmacokinetic parameters Tmax, Cmax, AUC0-∞, t1/2, etc. were calculated using WinNonlin software.

[5] = Preliminary pharmacokinetic evaluation, plasma drug concentration after oral administration to mice; format: in vivo, ICR mice; conditions: male, ICR, mouse, oral 10 mg/kg, Mean ± SD, N = 3
Method: The test compound was prepared according to the following solvent: an aqueous solution of DMSO/Tween 80/0.5% (m/v) CMC-Na at a ratio of 2:2:96 (v/v/v), with a drug concentration of 1 mg/mL. Then, the test compound was gavaged to mice at a dosage of 10 mL/kg, with a dose of 10 mg/kg. Each compound was administered to 3 mice. At 1h and 4h after administration, about 50 µL of blood was collected from the orbital venous plexus of the mouse and placed in a centrifuge tube containing EDTA-K2 anticoagulant.

MF % ([3]; Human liver microsomes, metabolic bioavailability) [%]	half-life at 1 µM ([3]; human, liver microsomes, pH 7.4) [h]	concentration in each tissue [4]	concentration at 1 h ([5]; 1h) [ng/mL]	concentration at 4 h ([5]; 4h) [ng/mL]	Compound	proportion of α-SMA-positive cells [1] [%]	immobility time of mice in the tail suspension box ([2]; oral 0.03 mg/kg, test with reduced dosage (Figure 6), comparable to 0.1 mg/kg of HC-070)	immobility time of mice ([2]; oral 0.1, 0.3, 1 mg/kg, before versus after administration (Figure 4))	Stability Evaluation ([3]; Human liver microsomes)
					Cn1c(=O)n(CCCO)c(=O)c2c1nc(C1(F)CCC(C(F)(F)F)CC1)n2Cc1ccc(Cl)cc1 (stereo not drawn) [Example E21, 7-(4-chlorobenzyl)-8-(1-fluoro-4-(trifluoromethyl)cyclohexyl)-1-(3-hydroxypropyl)-3-methyl-3,7-dihydro-1H-purine-2,6-dione]	5.20 ± 0.74			
55.2	2.2	significantly higher than that in plasma	2700 ± 54	1890 ± 213	Cn1c(=O)n(CCCO)c(=O)c2c1nc(C1(F)CCC(F)(F)CC1)n2Cc1ccc(F)c(Cl)c1 [Example E68, 7-(3-chloro-4-fluorobenzyl)-1-(3-hydroxypropyl)-3-methyl-8-(1,4,4-trifluorocyclohexyl)-3,7-dihydro-1H-purine-2,6-dione]		significantly reduce	significantly reduced	Medium (30%<MF%<70%, medium metabolic stability)
